Data reported in patent publication EP4768499A1, “MACROCYCLIC PEPTIDE COMPOUND HAVING CELL MEMBRANE PERMEABILITY AND METABOLIC STABILITY, AND LIBRARY CONTAINING SAME” (Chugai Seiyaku Kabushiki Kaisha, priority 2023, dated 2025).
Like-named read-outs stand apart in the source and are kept apart here. Starred links: 1 amine or outer side, 2 acyl side, 3 side chain; linkers in the order of their positions; H or OH if unused. Positions of bridges follow the written chain, without caps; N, C: chain ends. Non-standard residues stand in square brackets, D forms with d. Residues, ends and D or L forms follow the SMILES beside them. *: point of attachment. NMeF = CN[C@@H](Cc1ccccc1)C(=O)O; NMeGABA = CN(CCCC(=O)[*:2])[*:1]; NMeI = CC[C@H](C)[C@H](NC)C(=O)O; NMeT = CN[C@H](C(=O)O)[C@@H](C)O; hPhe = N[C@@H](CCc1ccccc1)C(=O)O; NMeβAla = CN(CCC(=O)[*:2])[*:1]; NMeD = CN[C@@H](CC(=O)O)C(=O)O; NMeL = CN[C@@H](CC(C)C)C(=O)O; dNMeV = CN[C@@H](C(=O)O)C(C)C; NMeV = CN[C@H](C(=O)O)C(C)C; NMeAbu = CC[C@H](NC)C(=O)O; NMeA = CN[C@@H](C)C(=O)O; Piperidide = C1CCN(*)CC1; Abu = CC[C@H](N)C(=O)O; NBuGly = CCCCNCC(=O)O; βAla = NCCC(=O)O; Sar = CNCC(=O)O; tBu = CC(C)(C)*

What was measured:
[1] = Metabolic stability test: liver microsomal stability assay; assay type: in vitro ADME, mouse; settings: for microsomal CLint at 1 µM: male, pH 7.4, presence of NADPH, read-out: Mouse Hepatic Microsome CLh,int NADPH(+)
[2] = Membrane permeability test using Caco-2 cells with preincubation; assay type: in vitro ADME; settings: Caco-2
[3] = system: Caco-2 cells; assay: as above; assay type: in vitro ADME
[4] = mouse liver microsomes 0.5 mg protein/mL, compound 1 µM
[5] = mouse liver microsomes 0.5 mg protein/mL, compound 1 µM, absence of NADPH
[6] = preincubation 20 to 24 hours, Apical FaSSIF/HBSS pH 6.0, Basal HBSS 4% BSA pH 7.4, 180 minutes, read-out: Caco2 Papp
[7] = Caco-2 cells, preincubation 20 to 24 hours, apical FaSSIF/HBSS 1% DMSO pH 6.0, basal HBSS 4% BSA pH 7.4, basal sample at 180 minutes

microsomal CLint at 1 µM [1, 4]	Mouse Hepatic Microsome CLh,int NADPH(-) [1, 5]	Papp A→B [2, 6]	Caco2 Papp (10^-6 cm/sec) [3, 7]	Compound	Mouse Hepatic Microsome CLh,int NADPH(-) [1]	Papp A→B [2]	Caco2 Papp (10^-6 cm/sec) ([3]; Caco-2)
39.4 µL/min/mg	36.1 µL/min/mg Protein	0.11 ×10⁻⁶ cm/s	0.11 10^-6 cm/sec	CC[C@@H]1NC(=O)[C@H](Cc2ccccc2)N(C)C(=O)[C@H](COC(C)(C)C)NC(=O)[C@H](CC(C)C)N(C)C(=O)[C@H](CC(C)C)NC(=O)[C@H](C)N(C)C(=O)C[C@@H](C(=O)N2CCCCC2)N(C)C(=O)[C@H](CC(C)C)N(C)C(=O)[C@H]([C@@H](C)CC)NC(=O)[C@H](Cc2ccccc2)N(C)C(=O)[C@H]([C@@H](C)O)N(C)C(=O)[C@H](CC)N(C)C(=O)[C@H](CC(C)C)NC(=O)CN(C)C1=O [pd091] ([NMeA]L[NMeL]S(tBu)[NMeF][Abu][Sar]L[NMeAbu][NMeT][NMeF]I[NMeL][NMeD]-Piperidide; lactam N-14)	–	–	–
22 µL/min/mg	26.3 µL/min/mg Protein	0.09 ×10⁻⁶ cm/s	0.09 10^-6 cm/sec	CC[C@H](C)[C@@H]1NC(=O)CN(C)C(=O)C[C@@H](C(=O)N2CCCCC2)N(C)C(=O)[C@H](C(C)C)NC(=O)[C@H](Cc2ccccc2)N(C)C(=O)[C@H](CC(C)C)N(C)C(=O)[C@H]([C@@H](C)O)NC(=O)[C@H](CC(C)C)N(C)C(=O)[C@H](CC(C)C)NC(=O)[C@H](C(C)C)N(C)C(=O)[C@H](C)N(C)C(=O)[C@H](CC(C)C)N(C)C(=O)[C@H](CCc2ccccc2)NC(=O)[C@H](CC(C)C)N(C)C1=O [pd092] ([Sar]I[NMeL][hPhe][NMeL][NMeA][NMeV]L[NMeL]T[NMeL][NMeF]V[NMeD]-Piperidide; lactam N-14)	–	–	–
26.8 µL/min/mg	20.4 µL/min/mg Protein	< 0.14 ×10⁻⁶ cm/s	<0.14 10^-6 cm/sec	CC[C@H]1C(=O)N(C)[C@@H](C(C)C)C(=O)N[C@@H](CC(C)C)C(=O)N(C)[C@H](C(=O)N2CCCCC2)CC(=O)N(C)[C@H](C(C)C)C(=O)N(C)[C@@H](CC(C)C)C(=O)N[C@@H](CCc2ccccc2)C(=O)N(C)[C@@H](C(C)C)C(=O)N(C)[C@@H](CC(C)C)C(=O)N[C@@H]([C@@H](C)O)C(=O)N(C)[C@@H](C)C(=O)N(C)[C@@H](CC(C)C)C(=O)N[C@@H](COC(C)(C)C)C(=O)N(C)[C@@H](Cc2ccccc2)C(=O)N1C [pd093] ([dNMeV][NMeL][hPhe][NMeV][NMeL]T[NMeA][NMeL]S(tBu)[NMeF][NMeAbu][NMeV]L[NMeD]-Piperidide; lactam N-14)	–	–	–
22.5 µL/min/mg	16.7 µL/min/mg Protein	< 0.13 ×10⁻⁶ cm/s	<0.13 10^-6 cm/sec	CC[C@H]1C(=O)N(C)CC(=O)N(C)[C@@H](CC(C)C)C(=O)N[C@@H](COC(C)(C)C)C(=O)N(C)[C@@H](C)C(=O)N(C)[C@@H](Cc2ccccc2)C(=O)N(C)CC(=O)N(C)[C@H](C(=O)N2CCCCC2)CC(=O)N[C@H](C(C)C)C(=O)N(C)[C@@H](Cc2ccccc2)C(=O)NCCC(=O)N(C)[C@@H](C(C)C)C(=O)N[C@@H]([C@@H](C)O)C(=O)N(C)[C@@H](CC(C)C)C(=O)N1C [pd094] ([dV][NMeF][βAla][NMeV]T[NMeL][NMeAbu][Sar][NMeL]S(tBu)[NMeA][NMeF][Sar][NMeD]-Piperidide; lactam N-14)	–	–	–
25.6 µL/min/mg	29.2 µL/min/mg Protein	< 0.1 ×10⁻⁶ cm/s	<0.10 10^-6 cm/sec	CC[C@H](C)[C@@H]1NC(=O)[C@H](Cc2ccccc2)N(C)C(=O)[C@H]([C@@H](C)O)N(C)C(=O)[C@H]([C@@H](C)CC)N(C)C(=O)[C@H](CC(C)C)NC(=O)CN(C)C(=O)[C@H](CC)N(C)C(=O)[C@H](Cc2ccccc2)N(C)C(=O)[C@H](COC(C)(C)C)NC(=O)[C@H](CC(C)C)N(C)C(=O)[C@H](CC(C)C)NC(=O)[C@H](C)N(C)C(=O)C[C@@H](C(=O)N2CCCCC2)N(C)C(=O)[C@H](CC(C)C)N(C)C1=O [pd095] ([NMeA]L[NMeL]S(tBu)[NMeF][NMeAbu][Sar]L[NMeI][NMeT][NMeF]I[NMeL][NMeD]-Piperidide; lactam N-14)	–	–	–
–	–	–	–	CC[C@H](C)[C@H]1C(=O)N(C)[C@@H](CC(C)C)C(=O)N[C@@H](CCc2ccccc2)C(=O)N(C)[C@@H](CC(C)C)C(=O)N(C)CCC(=O)N(C)[C@@H](C(C)C)C(=O)N[C@@H](CC(C)C)C(=O)N(C)[C@@H](CC(C)C)C(=O)N[C@@H]([C@@H](C)O)C(=O)N(C)CCC(=O)N(C)[C@@H](Cc2ccccc2)C(=O)N[C@@H](C(C)C)C(=O)N(C)[C@H](C(=O)N2CCCCC2)CC(=O)N(C)CC(=O)N1C [pd096] ([Sar][NMeI][NMeL][hPhe][NMeL][NMeβAla][NMeV]L[NMeL]T[NMeβAla][NMeF]V[NMeD]-Piperidide; lactam N-14)	18.2 µL/min/mg Protein	0.51 ×10⁻⁶ cm/s	0.51 10^-6 cm/sec
44.5 µL/min/mg	37.8 µL/min/mg Protein	0.57 ×10⁻⁶ cm/s	0.57 10^-6 cm/sec	CC[C@H](C)[C@@H]1NC(=O)[C@H](C)NC(=O)[C@H](CC(C)C)N(C)C(=O)[C@H](COC(C)(C)C)NC(=O)[C@H](CC(C)C)N(C)C(=O)[C@@H]2CCCN2C(=O)[C@H](Cc2ccccc2)NC(=O)[C@H]([C@@H](C)CC)N(C)C(=O)[C@H](CC(C)C)N(C)C(=O)CCCN(C)C(=O)C[C@@H](C(=O)N2CCCCC2)NC(=O)[C@H](Cc2ccccc2)N(C)C(=O)[C@H](CC)N(C)C1=O [pd098] ([NMeGABA][NMeL][NMeI]FP[NMeL]S(tBu)[NMeL]AI[NMeAbu][NMeF]D-Piperidide; lactam N-13)	–	–	–
30.3 µL/min/mg	27.8 µL/min/mg Protein	0.41 ×10⁻⁶ cm/s	0.41 10^-6 cm/sec	CCCCN1CC(=O)N(C)[C@@H](CC)C(=O)N[C@H](C(=O)N2CCCCC2)CC(=O)N(C)[C@@H](C)C(=O)N[C@@H]([C@@H](C)CC)C(=O)N(C)[C@@H](Cc2ccccc2)C(=O)N(C)[C@@H](CC(C)C)C(=O)N[C@@H](C(C)C)C(=O)N(C)CC(=O)N[C@@H](CC(C)C)C(=O)N(C)[C@@H](Cc2ccccc2)C(=O)N(C)[C@@H](C)C(=O)N[C@@H](CC(C)C)C1=O [pd099] ([NMeA]I[NMeF][NMeL]V[Sar]L[NMeF][NMeA]L[NBuGly][NMeAbu]D-Piperidide; lactam N-13)	–	–	–
39.6 µL/min/mg	28.4 µL/min/mg Protein	< 0.12 ×10⁻⁶ cm/s	<0.12 10^-6 cm/sec	CCCCN1CC(=O)N[C@@H](COC(C)(C)C)C(=O)N(C)[C@@H](Cc2ccccc2)C(=O)N[C@@H](CC(C)C)C(=O)N(C)[C@@H](C(C)C)C(=O)N[C@H](C(=O)N2CCCCC2)CC(=O)N[C@H](C(C)C)C(=O)N(C)[C@@H](Cc2ccccc2)C(=O)N[C@@H](CC(C)C)C(=O)N(C)[C@@H](C(C)C)C(=O)N(C)[C@@H](CC(C)C)C(=O)N[C@@H]([C@@H](C)O)C(=O)N(C)[C@@H](CC(C)C)C1=O [pd100] ([dV][NMeF]L[NMeV][NMeL]T[NMeL][NBuGly]S(tBu)[NMeF]L[NMeV]D-Piperidide; lactam N-13)	–	–	–
41.1 µL/min/mg	31.5 µL/min/mg Protein	0.16 ×10⁻⁶ cm/s	0.16 10^-6 cm/sec	CC[C@@H]1NC(=O)[C@H](Cc2ccccc2)N(C)C(=O)[C@H]([C@@H](C)CC)NC(=O)[C@H](CC(C)C)N(C)C(=O)[C@H](CC(C)C)NC(=O)CCN(C)C(=O)C[C@@H](C(=O)N2CCCCC2)NC(=O)[C@H](CC(C)C)N(C)C(=O)[C@H](C)N(C)C(=O)[C@H]([C@@H](C)O)NC(=O)[C@H](CC(C)C)N(C)C(=O)[C@H](C(C)C)NC(=O)[C@H](Cc2ccccc2)N(C)C1=O [pd101] ([NMeβAla]L[NMeL]I[NMeF][Abu][NMeF]V[NMeL]T[NMeA][NMeL]D-Piperidide; lactam N-13)	–	–	–
32.9 µL/min/mg	25.1 µL/min/mg Protein	0.09 ×10⁻⁶ cm/s	0.09 10^-6 cm/sec	CC[C@H](C)[C@@H]1NC(=O)[C@H](C)N(C)C(=O)[C@H]([C@@H](C)O)NC(=O)[C@H](Cc2ccccc2)N(C)C(=O)[C@H](COC(C)(C)C)NC(=O)[C@H](CC(C)C)N(C)C(=O)[C@H](CCc2ccccc2)NC(=O)[C@@H]2CCCN2C(=O)[C@H]([C@@H](C)CC)NC(=O)[C@H](CC(C)C)N(C)C(=O)CCCN(C)C(=O)C[C@@H](C(=O)N2CCCCC2)NC(=O)[C@H](CC(C)C)N(C)C1=O [pd102] ([NMeGABA][NMeL]IP[hPhe][NMeL]S(tBu)[NMeF]T[NMeA]I[NMeL]D-Piperidide; lactam N-13)	–	–	–
25.5 µL/min/mg	21.3 µL/min/mg Protein	0.08 ×10⁻⁶ cm/s	0.08 10^-6 cm/sec	CCCCN1CC(=O)N[C@@H]([C@@H](C)CC)C(=O)N(C)[C@@H](CC(C)C)C(=O)N[C@H](C(=O)N2CCCCC2)CC(=O)N(C)[C@@H](C)C(=O)N(C)[C@@H](CC(C)C)C(=O)N[C@@H]([C@@H](C)O)C(=O)N(C)[C@@H](Cc2ccccc2)C(=O)N[C@@H](CC)C(=O)N(C)[C@@H](Cc2ccccc2)C(=O)N[C@@H](CC(C)C)C(=O)N(C)[C@@H]([C@@H](C)CC)C(=O)N[C@@H](CC(C)C)C1=O [pd103] ([NMeA][NMeL]T[NMeF][Abu][NMeF]L[NMeI]L[NBuGly]I[NMeL]D-Piperidide; lactam N-13)	–	–	–

Compound	microsomal CLint at 1 µM [1, 4]	Mouse Hepatic Microsome CLh,int NADPH(-) [1, 5]	Papp A→B [2, 6]	Caco2 Papp (10^-6 cm/sec) [3, 7]	Mouse Hepatic Microsome CLh,int NADPH(-) [1]	Papp A→B [2]	Caco2 Papp (10^-6 cm/sec) ([3]; Caco-2)
CC(C)C[C@@H]1NC(=O)[C@@H]2CCCN2C(=O)[C@H](C(C)C)N(C)C(=O)[C@H](C)NC(=O)[C@H](CC(C)C)N(C)C(=O)[C@@H](C(C)C)NC(=O)C[C@@H](C(=O)N2CCCCC2)NC(=O)[C@H](C(C)C)N(C)C(=O)[C@H](Cc2ccccc2)N(C)C(=O)[C@H](CC(C)C)NC(=O)[C@H](COC(C)(C)C)NC(=O)[C@H](CC(C)C)N(C)C(=O)CN(C)C1=O [pd097] ([dV][NMeL]A[NMeV]PL[Sar][NMeL]S(tBu)L[NMeF][NMeV]D-Piperidide; lactam N-13)	20.4 µL/min/mg	18.8 µL/min/mg Protein	0.54 ×10⁻⁶ cm/s	0.54 10^-6 cm/sec	–	–	–
